2 molecules from patent US20250186408A1, “TREATMENT OF PHARMACORESISTANT EPILEPSY” (Katholieke Universiteit Leuven, priority 2021, published 2025) can be followed below.

pEC50, pIC50: −log10 of the molar value. Like-named read-outs stand apart in the source and are kept apart here.

In data set [1] the target is T1, HTR3A (Homo sapiens, UniProt P46098).
T1 sequence (P46098 24-478): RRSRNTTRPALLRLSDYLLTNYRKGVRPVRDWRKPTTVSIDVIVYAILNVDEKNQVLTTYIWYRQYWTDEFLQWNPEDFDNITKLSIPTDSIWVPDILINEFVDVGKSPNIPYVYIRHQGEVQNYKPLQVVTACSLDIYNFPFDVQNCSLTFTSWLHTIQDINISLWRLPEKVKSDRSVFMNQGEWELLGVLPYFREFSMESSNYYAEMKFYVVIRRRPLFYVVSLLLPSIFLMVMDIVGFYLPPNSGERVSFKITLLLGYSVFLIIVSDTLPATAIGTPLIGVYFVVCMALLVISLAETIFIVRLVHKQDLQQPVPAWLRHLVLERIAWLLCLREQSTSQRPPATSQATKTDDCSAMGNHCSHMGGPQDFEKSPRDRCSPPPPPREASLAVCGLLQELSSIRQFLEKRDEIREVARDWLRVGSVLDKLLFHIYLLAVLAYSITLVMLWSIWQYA
Description: Ion Channel HTR3A Opener. Format: cell-based. Particulars: for Emax: Ion Channel HTR3A Opener, read-out: Max response.

For data set [2], the target named is T2, ADRA2A (Homo sapiens, UniProt P08913).
T2 sequence (P08913 1-465): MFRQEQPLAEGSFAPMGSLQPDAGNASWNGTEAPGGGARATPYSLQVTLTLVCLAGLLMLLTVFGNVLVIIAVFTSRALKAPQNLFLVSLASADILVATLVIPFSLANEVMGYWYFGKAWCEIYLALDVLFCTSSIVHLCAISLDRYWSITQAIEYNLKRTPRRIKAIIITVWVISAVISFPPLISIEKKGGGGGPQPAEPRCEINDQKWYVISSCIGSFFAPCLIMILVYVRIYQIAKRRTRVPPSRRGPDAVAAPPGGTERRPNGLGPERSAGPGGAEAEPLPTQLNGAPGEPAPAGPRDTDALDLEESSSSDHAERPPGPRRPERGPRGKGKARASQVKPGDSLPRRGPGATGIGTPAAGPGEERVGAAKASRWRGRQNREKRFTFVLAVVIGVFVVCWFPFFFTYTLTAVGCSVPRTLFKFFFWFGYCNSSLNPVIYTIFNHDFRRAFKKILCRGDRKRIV
The data set is described as follows: cAMP ADRA2A Agonist. The note with it: for Emax: read-out: Max response.
Description: In vitro pharmacological profiling of compounds was done against 78 functional assays for 47 common off-targets (30) by Eurofins DiscoverX Corporation (Fremont, CA, USA) using their SAFETYscan E/IC50 ELECT service (Cat Ref 87-1003DR, Safety47 Panel Dose Response). […] Compounds were tested in a range of 10 concentrations, following a 3-fold serial dilution, starting from 10 μM. The assays were performed utilizing the PathHunter enzyme fragment complementation (EFC) technology, FLIPR®-based cellular screening assays, and KINOMEscan kinase binding assays.
cAMP Hunter cell lines were expanded from freezer stocks. Prior to testing, cells were seeded in a total volume of 20 μL into white walled 384-well microplates and incubated at 37° C. cAMP modulation was determined using the DiscoverX HitHunter cAMP XS+ assay. For Gs agonist determination, cells were incubated with sample to induce response. For Gi agonist determination, cells were incubated with sample in the presence of EC80 forskolin to induce response. For both conditions, media was aspirated from cells and replaced with 15 μL 2:1 HBSS/10 mM HEPES:cAMP XS+ Ab reagent. Intermediate dilution of sample stocks was performed to generate 4× sample in assay buffer (containing 4×EC80 forskolin in the case of antagonist determination). 5 μL of 4× sample was added to cells and incubated at 37° C. or room temperature (RT) for 30 or 60 min. Final assay vehicle concentration was 1%. For antagonist determination, cells were pre-incubated with sample followed by agonist challenge at the EC80 concentration. Media was aspirated from cells and replaced with 10 μL 1:1 HBSS/HEPES:cAMP XS+ Ab reagent. 5 μL of 4× compound was added to the cells and incubated at 37° C. or RT for 30 min. 5 μL of 4×EC80 agonist was added to the cells and incubated at 37° C. or RT for 30 or 60 min. For Gi coupled GPCRs, EC80 forskolin was included. […] Microplates were read following signal generation with a PerkinElmer Envision™ instrument for chemiluminescent signal detection. Compound activity was analyzed using CBIS data analysis suite (ChemInnovation, CA).

Data set [3] in a line: Intrinsic clearance (liver microsomes). The note with it: pooled liver microsomes, pH 7.4, human liver microsomes. Format: in vitro ADME. The source says: In vitro ADME profiling of compounds was done by Eurofins Panlabs Inc (St Charles, MO, USA) using their ADME-Tox service (Cat Ref P375, Tier 1 ADME Panel). […] (28). The atom-based log P calculation method, called OsirisP, uses as an increment system and adds contributions of every atom based on its atom type. The prediction engine distinguishes a total of 368 atom types and was optimized using a training set of more than 5000 molecules with experimentally determined log P values. The free prediction engine has proven to outperform many alternative calculation methods (29).
Metabolic stability of the test compounds was evaluated in pooled liver microsomes from human species. Test compounds were pre-incubated with liver microsomes in phosphate buffer (pH 7.4) in a 37° C. shaking water bath for 5 min and an NADPH-generating system was added to initiate the reaction. Samples were collected at time points of 0, 15, 30, 45 and 60 min and extracted with acetonitrile/methanol. After centrifugation, the supernatants were analysed by HPLC-MS/MS. T1/2 was calculated from the slope of the line obtained by plotting the natural logarithmic percentage (Ln %) of the test compound remaining in the reaction mixture vs. incubation time (min). CLint (μL/min/mg protein) was calculated from T1/2 using following equation: […]
On the technique in general: Liver microsomes are vesicles of endoplasmic reticulum, rich in cytochrome P450 enzymes.

Data set [4] deals with HRH2 (Homo sapiens, UniProt P25021). The data set is described as follows: cAMP HRH2 Agonist. Particulars: for Emax: read-out: Max response. Format: cell-based. As to the method: cAMP Hunter cell lines were expanded from freezer stocks. […] For Gi agonist determination, cells were incubated with sample in the presence of EC80 forskolin to induce response. For both conditions, media was aspirated from cells and replaced with 15 μL 2:1 HBSS/10 mM HEPES:cAMP XS+ Ab reagent. […] 5 μL of 4× sample was added to cells and incubated at 37° C. or room temperature (RT) for 30 or 60 min. Final assay vehicle concentration was 1%. […] Media was aspirated from cells and replaced with 10 μL 1:1 HBSS/HEPES:cAMP XS+ Ab reagent. […] For Gi coupled GPCRs, EC80 forskolin was included. […] Compound activity was analyzed using CBIS data analysis suite (ChemInnovation, CA).
Sequence of HRH2 (P25021 whole entry): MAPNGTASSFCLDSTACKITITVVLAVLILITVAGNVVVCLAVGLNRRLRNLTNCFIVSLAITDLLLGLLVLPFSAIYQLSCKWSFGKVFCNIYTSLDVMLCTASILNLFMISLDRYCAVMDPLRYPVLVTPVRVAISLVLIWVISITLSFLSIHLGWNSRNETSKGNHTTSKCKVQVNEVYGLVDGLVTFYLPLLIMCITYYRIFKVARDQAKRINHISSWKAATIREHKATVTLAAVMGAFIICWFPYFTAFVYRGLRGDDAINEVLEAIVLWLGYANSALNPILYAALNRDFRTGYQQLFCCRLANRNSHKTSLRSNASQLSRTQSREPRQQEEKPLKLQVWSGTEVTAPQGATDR

Data set [5] has as its target HRH1 (Homo sapiens, UniProt P35367). The data set is described as follows: Calcium Flux HRH1 Antagonist. It is filed as cell-based. The note with it: for Emax: read-out: Max response. As to the method: (≤0.2% DMSO concentration). Assays were performed in 1× dye loading buffer consisting of 1× Dye (DiscoverX, Calcium No Wash^PLUS kit, Catalog No. 90-0091), 1× Additive A and 2.5 mM Probenecid in HBSS/20 mM HEPES. Probenecid was prepared fresh. Prior to testing, media was aspirated from cells and replaced with 25 μL dye loading buffer. Cells were incubated for 45 min at 37° C. and then 20 min at RT. For agonist determination, 25 μL of 2× compound in HBSS/20 mM HEPES was added using a FLIPR Tetra (MDS). […] 25 μL of 2× sample was added and cells were incubated for 30 min at RT in the dark to equilibrate plate temperature. After incubation, antagonist determination was initiated by addition of 25 μL of 1× compound with 3×EC80 agonist using FLIPR. For both agonist and antagonist formats, activity was measure on a FLIPR Tetra (MDS). Calcium mobilization was monitored for 2 min with a 5 sec baseline read.
FLIPR read—Area under the curve, was calculated for the entire 2 min read.
(Calcium assays in cells follow changes in intracellular calcium, usually with a dye or a luminescent sensor.)

Data set [6] addresses KvLQT1/minK (Homo sapiens, UniProt P51787). Description: Ion Channel KvLQT1/minK Opener. It is filed as cell-based. Particulars: for Emax: read-out: Max response.

In general, pEC50 refers to the negative decadic logarithm of the EC50, by convention in mol/L. What is called half-life is the time needed for the level to fall by half in the phase considered. What is called microsomal CLint is a measure of how fast metabolising enzymes remove a compound, apart from limits set by blood flow. What is called pIC50 is the IC50 on a negative log10 scale, so that one unit is a factor of ten.

Sequence of HRH1 (P35367 whole entry): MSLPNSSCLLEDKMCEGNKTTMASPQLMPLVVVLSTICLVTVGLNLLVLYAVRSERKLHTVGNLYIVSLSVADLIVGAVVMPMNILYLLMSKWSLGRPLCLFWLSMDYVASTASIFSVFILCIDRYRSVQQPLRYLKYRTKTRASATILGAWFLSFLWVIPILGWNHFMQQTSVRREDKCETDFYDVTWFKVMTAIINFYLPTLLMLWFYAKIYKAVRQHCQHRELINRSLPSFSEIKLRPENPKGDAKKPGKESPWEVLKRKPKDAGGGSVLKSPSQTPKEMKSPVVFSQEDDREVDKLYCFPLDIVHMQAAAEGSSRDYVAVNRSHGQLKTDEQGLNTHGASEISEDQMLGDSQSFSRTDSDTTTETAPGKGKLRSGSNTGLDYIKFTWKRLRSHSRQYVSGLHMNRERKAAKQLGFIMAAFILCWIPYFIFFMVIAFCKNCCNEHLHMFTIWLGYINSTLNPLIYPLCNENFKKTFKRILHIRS

With `CC(C)(C)c1ccc(C#CC(O)c2ccccc2)cc1` (racemic) [Compound 3.3, rac-3-(4-(tert-butyl)phenyl)-1-phenylprop-2-yn-1-ol], the pEC50 in data set [1], in data set [2], in data set [4] and in data set [6] was < 5.00 throughout. The Emax was determined as 0% in data set [1]; 0% in data set [2]; 2.2% in data set [4]; 0% in data set [5]; 0% in data set [6]. In addition, the half-life at 100 nM in data set [3] was 19 min. Further, the microsomal CLint at 100 nM in data set [3] amounted to 381 µL/min/mg. Moreover, the pIC50 in data set [5] was < 5.00.
In the case of `Clc1cccc(C#Cc2n[nH]c3ncccc23)c1` [Compound 10.1, 3-((3-chlorophenyl)ethynyl)-1H-pyrazolo[3,4-b]pyridine], the negative logarithm of the EC50 (pEC50) is < 5.00 in data set [1]; < 5.00 in data set [2]; < 5.00 in data set [4] (cAMP HRH2 Agonist, read-out: RC50, result type EC50); < 5.00 in data set [6] (Ion Channel KvLQT1/minK Opener, read-out: RC50, result type EC50). Moreover, the Emax in data set [1] was determined as 3.4%; in data set [2] it was 20.7%; in data set [4] (cAMP HRH2 Agonist), 0.4%; in data set [5] (Calcium Flux HRH1 Antagonist), 1%; in data set [6] (Ion Channel KvLQT1/minK Opener), 2%. The molecule also had a half-life at 100 nM in data set [3] of 10 min. For the same molecule, the microsomal CLint at 100 nM in data set [3] came to 748 µL/min/mg. The pIC50 in data set [5] (Calcium Flux HRH1 Antagonist, read-out: RC50, result type IC50) was < 5.00.
